Results taken from patent publication US9145351B2, “Azole derivatives, methods for producing the same, intermediate thereof, agro-horticultural agents” (KUREHA CORPORATION, priority 2009, dated 2015).
Like-named read-outs stand apart in the source and are kept apart here.

Tests used:
Format in all cases: cell-based
[1] = system: Phaeosphaeria nodorum; test: Plate medium fungicidal assay, wheat Septoria nodorum blotch P.n (Experimental Example 5); settings: for inhibition at 5 µg/mL / inhibition at 50 µg/mL: Parastagonospora nodorum
Procedure: (§1) In this Experimental Example, the fungicidal effects of the inventive compounds on various phytopathogenic fungi for plants and hazardous microorganism for industrial materials were examined by the methods described below. Each inventive compound was dissolved in 2 ml of dimethyl sulfoxide. 0.6 ml of this solution was added to 60 nil of a PDA medium (potato dextrose agar medium) at about 60 degrees C., which was mixed thoroughly in a 100-ml conical flask, and poured into a dish, where it was solidified, thereby obtaining a plate medium containing the inventive compound at 50 mg/L and 5 mg/L. On the other hand, a subject microorganism previously cultured on a plate medium was cut out using a cork borer whose diameter was 4 mm, and inoculated to the test compound-containing plate medium described above. […] The growth degree of the microorganism on the test compound-containing plate medium thus observed was compared with the growth degree of the microorganism in the untreated group, and % mycelial growth inhibition was calculated by the following equation. R=100(dc−dt)/dc wherein R=% mycelial extension inhibition, dc=flora diameter in untreated plate, dt=flora diameter in treated plate. The results obtained as described above were evaluated as one of the 5 grades according to the following criteria. […] Wheat Septoria nodorum blotch (Phaeosphaeria nodorum) P.n

[2] = system: Fusarium graminearum; test: microbe, parasite or virus in culture; settings: for inhibition at 5 µg/mL / inhibition at 50 µg/mL: Fusarium graminearum
[3] = system: Ustilago nuda; test: Plate medium fungicidal assay, barley loose smut U.n (Experimental Example 5); settings: for inhibition at 5 µg/mL / inhibition at 50 µg/mL: Ustilago nuda
Procedure: as §1, with “Barley loose smut (Ustilago nuda) U.n” for “Wheat Septoria nodorum blotch (Phaeosphaeria nodorum) P.n”

[4] = system: Giberella fujikuroi; test: Plate medium fungicidal assay, rice bakanae disease G.f (Experimental Example 5)
Procedure: as §1, with “Rice bakanae disease (Giberella fujikuroi) G.f” for “Wheat Septoria nodorum blotch (Phaeosphaeria nodorum) P.n”

[5] = system: Sclerotinia sclerotiorum; test: Plate medium fungicidal assay, Sclerotinia rot S.s (Experimental Example 5); settings: for inhibition at 5 µg/mL / inhibition at 50 µg/mL: Sclerotinia sclerotiorum
Procedure: as §1, with “Sclerotinia rot (Sclerotinia sclerotiorum) S.s” for “Wheat Septoria nodorum blotch (Phaeosphaeria nodorum) P.n”

[6] = system: Botritis cinerea; test: Plate medium fungicidal assay, gray mold B.c (Experimental Example 5)
Procedure: as §1, with “Gray mold (Botritis cinerea) B.c” for “Wheat Septoria nodorum blotch (Phaeosphaeria nodorum) P.n”

[7] = plate medium, 5 mg/L, read-out: growth inhibition grade P.n
[8] = plate medium, 50 mg/L, read-out: growth inhibition grade P.n
[9] = read-out: growth inhibition grade F.g
[10] = plate medium, 5 mg/L, read-out: growth inhibition grade U.n
[11] = plate medium, 50 mg/L, read-out: growth inhibition grade U.n
[12] = plate medium, 5 mg/L, read-out: growth inhibition grade G.f
[13] = plate medium, 50 mg/L, read-out: growth inhibition grade G.f
[14] = plate medium, 5 mg/L, read-out: growth inhibition grade S.s
[15] = plate medium, 50 mg/L, read-out: growth inhibition grade S.s
[16] = plate medium, 5 mg/L, read-out: growth inhibition grade B.c
[17] = plate medium, 50 mg/L, read-out: growth inhibition grade B.c
[18] = plate medium containing compound at 5 mg/L
[19] = plate medium containing compound at 50 mg/L
[20] = read-out: Growth inhibition grade, F.g

SMILES	inhibition at 5 µg/mL [1, 7] [%]	inhibition at 50 µg/mL [1, 8] [%]	inhibition at 5 µg/mL [2, 9] [%]	inhibition at 50 µg/mL [2, 9] [%]	inhibition at 5 µg/mL [3, 10] [%]	inhibition at 50 µg/mL [3, 11] [%]	inhibition at 5 µg/mL [4, 12] [%]	inhibition at 50 µg/mL [4, 13] [%]	Growth inhibition grade, P.n [1, 18]	Growth inhibition grade, P.n [1, 19]	Growth inhibition grade, F.g [2, 18]	Growth inhibition grade, F.g [2, 19]	Growth inhibition grade, U.n [3, 18]	Growth inhibition grade, U.n [3, 19]	Growth inhibition grade, G.f [4, 18]	Growth inhibition grade, G.f [4, 19]	Growth inhibition grade, S.s [5, 18]	Growth inhibition grade, S.s [5, 19]	Growth inhibition grade, B.c [6, 18]	Growth inhibition grade, B.c [6, 19]	also measured
CC(Cl)=C[C@]1(C)CC[C@@H](Cc2ccc(Cl)cc2)[C@]1(O)Cn1cncn1 (racemic) [Compound I-115, (1RS,2SR,5SR)-5-(4-chlorobenzyl)-2-(2-chloropropenyl)-2-methyl-1-(1H-1,2,4-triazol-1-ylmethyl)cyclopentanol]	60 to 80	> 80	> 80	> 80	60 to 80	> 80	> 80	> 80	–	–	–	–	–	–	–	–	–	–	–	–	inhibition at 5 µg/mL [5, 14]: > 80%; inhibition at 50 µg/mL [5, 15]: > 80%; inhibition at 5 µg/mL [6, 16]: > 80%; inhibition at 50 µg/mL [6, 17]: > 80%
CC[C@]1(CCl)CC[C@@H](Cc2ccccc2)[C@]1(O)Cn1cncn1 (relative stereo) [Compound I-97]	–	–	–	–	–	–	–	–	5 (% Mycerial growth inhibition of 80% or higher)	5 (% Mycerial growth inhibition of 80% or higher)	5 (% Mycerial growth inhibition of 80% or higher)	5 (% Mycerial growth inhibition of 80% or higher)	5 (% Mycerial growth inhibition of 80% or higher)	5 (% Mycerial growth inhibition of 80% or higher)	5 (% Mycerial growth inhibition of 80% or higher)	5 (% Mycerial growth inhibition of 80% or higher)	5 (% Mycerial growth inhibition of 80% or higher)	5 (% Mycerial growth inhibition of 80% or higher)	5 (% Mycerial growth inhibition of 80% or higher)	5 (% Mycerial growth inhibition of 80% or higher)	–
C[C@]1(CCl)CC[C@@H](Cc2ccccc2F)[C@]1(O)Cn1cncn1 (relative stereo) [Compound I-86]	–	–	–	–	–	–	–	–	5 (% Mycerial growth inhibition of 80% or higher)	5 (% Mycerial growth inhibition of 80% or higher)	5 (% Mycerial growth inhibition of 80% or higher)	5 (% Mycerial growth inhibition of 80% or higher)	5 (% Mycerial growth inhibition of 80% or higher)	5 (% Mycerial growth inhibition of 80% or higher)	5 (% Mycerial growth inhibition of 80% or higher)	5 (% Mycerial growth inhibition of 80% or higher)	5 (% Mycerial growth inhibition of 80% or higher)	5 (% Mycerial growth inhibition of 80% or higher)	5 (% Mycerial growth inhibition of 80% or higher)	5 (% Mycerial growth inhibition of 80% or higher)	–
C[C@@]1(CCl)CC[C@@H](Cc2ccc(Cl)cc2)[C@]1(O)Cn1cncn1 (racemic) [Compound I-101]	–	–	–	–	–	–	–	–	5 (% Mycerial growth inhibition of 80% or higher)	5 (% Mycerial growth inhibition of 80% or higher)	5 (% Mycerial growth inhibition of 80% or higher)	5 (% Mycerial growth inhibition of 80% or higher)	5 (% Mycerial growth inhibition of 80% or higher)	5 (% Mycerial growth inhibition of 80% or higher)	5 (% Mycerial growth inhibition of 80% or higher)	5 (% Mycerial growth inhibition of 80% or higher)	5 (% Mycerial growth inhibition of 80% or higher)	5 (% Mycerial growth inhibition of 80% or higher)	5 (% Mycerial growth inhibition of 80% or higher)	5 (% Mycerial growth inhibition of 80% or higher)	–
C[C@]1(CCl)CC[C@@H](Cc2ccc(Cl)cc2)[C@]1(O)Cn1cncn1 (racemic) [Compound I-1, (1RS,2SR,5SR)-5-(4-chlorobenzyl)-2-chloromethyl-2-methyl-1-(1H-1,2,4-triazol-1-ylmethyl)cyclopentanol]	> 80	> 80	> 80	> 80	> 80	> 80	> 80	> 80	–	–	–	–	–	–	–	–	–	–	–	–	inhibition at 5 µg/mL ([1]; plate medium containing compound at 5 mg/L, read-out: Growth inhibition grade, P.n): > 80%; inhibition at 50 µg/mL ([1]; plate medium containing compound at 50 mg/L, read-out: Growth inhibition grade, P.n): > 80%; inhibition at 5 µg/mL [2, 20]: > 80%; inhibition at 50 µg/mL [2, 20]: > 80%; inhibition at 5 µg/mL ([3]; plate medium containing compound at 5 mg/L, read-out: Growth inhibition grade, U.n): > 80%; inhibition at 50 µg/mL ([3]; plate medium containing compound at 50 mg/L, read-out: Growth inhibition grade, U.n): > 80%; inhibition at 5 µg/mL ([4]; plate medium containing compound at 5 mg/L, read-out: Growth inhibition grade, G.f): > 80%; inhibition at 50 µg/mL ([4]; plate medium containing compound at 50 mg/L, read-out: Growth inhibition grade, G.f): > 80%; inhibition at 5 µg/mL ([5]; plate medium containing compound at 5 mg/L, read-out: Growth inhibition grade, S.s): > 80%; inhibition at 50 µg/mL ([5]; plate medium containing compound at 50 mg/L, read-out: Growth inhibition grade, S.s): > 80%; inhibition at 5 µg/mL [5, 14]: > 80%; inhibition at 50 µg/mL [5, 15]: > 80%; inhibition at 5 µg/mL ([6]; plate medium containing compound at 5 mg/L, read-out: Growth inhibition grade, B.c): > 80%; inhibition at 50 µg/mL ([6]; plate medium containing compound at 50 mg/L, read-out: Growth inhibition grade, B.c): > 80%; inhibition at 5 µg/mL [6, 16]: > 80%; inhibition at 50 µg/mL [6, 17]: > 80%
